Earlier results as cited in US20070071689A1, “Advantageous combination for inhalation of nacystelyn and bronchodilators” (GALEPHAR M/F, priority 2003, published 2007).

What was measured:
[1] = in comparison to ACC
cystic fibrosis patients = settings: in comparison to placebo
[2] = administration via the inhalation route

Molecule	active dose [1]	mucolytic and antioxidant activity [1]	number and severity of lung exacerbations (cystic fibrosis patients)	bronchospasms (side effects) [2]
L-Lysine N-Acetylcysteinate [NAL]	active at lower doses than ACC	superior to the activity of ACC	significantly decrease the number and severity of lung exacerbations	
CC(=O)N[C@@H](CS)C(=O)O [ACC, acetylcysteine]				can be responsible for reflex bronchospasms
